The values that follow come from ChEMBL document CHEMBL1125090, “Expedient synthesis and biochemical properties of an [125I]-labeled analogue of glyburide, a radioligand for ATP-inhibited potassium channels” (J Med Chem, 1990).

The experiment can be described thus: Inhibition of [125I]-I binding to ATP-inhibited Potassium channel receptor of Rat brain homogenate.
`COc1ccc(I)cc1C(=O)NCCc1ccc(S(=O)(=O)NC(=O)NC2CCCCC2)cc1` returned a Ki of 2.6 nM. In the case of `Cc1cnc(C(=O)NCCc2ccc(S(=O)(=O)NC(=O)NC3CCCCC3)cc2)cn1` [GLIPIZIDE] it was 8.2 nM; in that of `COc1ccc(Cl)cc1C(=O)NCCc1ccc(S(=O)(=O)NC(=O)NC2CCCCC2)cc1` [GLYBURIDE], 0.608 nM.
